Results on 17 molecules are retold here after PubChem BioAssay AID330 (DTP/NCI, 2004).

In this assay the test system is P388 leukemia ip, CD2F1 mice, survival T/C. In words: NCI In Vivo Anticancer Drug Screen. Data for tumor model P388 Leukemia (intraperitoneal) in CD2F1 (CDF1) mice. As to conditions: endpoint: median survival time, higher = longer survival. An outline of the steps:
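Mice carrying the transplanted tumor received test compound or vehicle. Survival was recorded in each group, and the value is the treated-group measurement divided by that of the vehicle-treated control group.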

Where [1] appears, read: dose: 25.0 mg/kg/injection, schedule: Q01DX009 (ip), vehicle: saline with Tween-80.
Where [2] appears, read: dose: 50.0 mg/kg/injection, schedule: Q01DX009 (ip), vehicle: saline with Tween-80.
Where [3] appears, read: dose: 100.0 mg/kg/injection, schedule: Q01DX009 (ip), vehicle: saline with Tween-80.
Where [4] appears, read: dose: 200.0 mg/kg/injection, schedule: Q01DX009 (ip), vehicle: saline with Tween-80.
Setting [5] is: dose: 50.0 mg/kg/injection, schedule: Q01DX005 (ip), vehicle: saline.

Structures are written as SMILES. Several values for one entry are separate records, joined by “and”; a condition that tells them apart may be missing. Equal values may be shown once. Toxic doses and inconclusive results are not listed.

Consider `CCC(C)Nc1ccc(N)cc1` (stereo unspecified), for which the T/C runs as follows: (dose: 0.1 mg/kg/injection, schedule: Q01DX009 (ip), vehicle: carboxymethylcellulose (CMC)) 115 % of control; (dose: 0.39 mg/kg/injection, schedule: Q01DX009 (ip), vehicle: Klucel (hydroxypropylcellulose) (HPC)) 95 % of control; (dose: 0.4 mg/kg/injection, schedule: Q01DX009 (ip), vehicle: carboxymethylcellulose (CMC)) 111 % of control; (dose: 0.78 mg/kg/injection, schedule: Q01DX009 (ip), vehicle: Klucel (hydroxypropylcellulose) (HPC)) 102 % of control; (dose: 1.56 mg/kg/injection, schedule: Q01DX009 (ip), vehicle: Klucel (hydroxypropylcellulose) (HPC)) 104 % of control and 110 % of control; (dose: 3.12 mg/kg/injection, schedule: Q01DX009 (ip), vehicle: Klucel (hydroxypropylcellulose) (HPC)) 100 % of control and 119 % of control. The T/C (dose: 6.25 mg/kg/injection, schedule: Q01DX009 (ip), vehicle: Klucel (hydroxypropylcellulose) (HPC)) is 108 % of control and 112 % of control.
On to `Cc1nc(CO)cc([N+](=O)[O-])c1C`, for which the T/C is 101 % of control (dose: 12.5 mg/kg/injection, schedule: Q01DX009 (ip), vehicle: distilled water + Tween-80); 101 % of control (dose: 25.0 mg/kg/injection, schedule: Q01DX009 (ip), vehicle: distilled water + Tween-80); 100 % of control (dose: 50.0 mg/kg/injection, schedule: Q01DX009 (ip), vehicle: distilled water + Tween-80); 101 % of control (dose: 100.0 mg/kg/injection, schedule: Q01DX009 (ip), vehicle: distilled water + Tween-80); 104 % of control (dose: 200.0 mg/kg/injection, schedule: Q01DX009 (ip), vehicle: distilled water + Tween-80).
For `CCc1nc(N)nc(N)c1-c1ccc(NC)c([N+](=O)[O-])c1`, the T/C (dose: 100.0 mg/kg/injection, schedule: Q01DX005 (ip), vehicle: Klucel (hydroxypropylcellulose) (HPC)) is 182 % of control.
Consider `Nc1cc(=O)[nH]c(=O)[nH]1`, for which the T/C runs as follows: under setting [1], 99 % of control; under setting [2], 100 % of control; under setting [3], 100 % of control; under setting [4], 98 % of control.
Turning to `CC(=O)OCC1OC(OC(C)=O)C(NC(=O)C(C)NC(=O)OCc2ccccc2)C(OC(C)=O)C1OC(C)=O` (stereo unspecified), the T/C was 99 % of control (dose: 12.5 mg/kg/injection, schedule: Q01DX009 (ip), vehicle: other); 104 % of control (dose: 25.0 mg/kg/injection, schedule: Q01DX009 (ip), vehicle: other); 113 % of control (dose: 50.0 mg/kg/injection, schedule: Q01DX009 (ip), vehicle: other); 104 % of control (dose: 100.0 mg/kg/injection, schedule: Q01DX009 (ip), vehicle: other); 92 % of control (dose: 200.0 mg/kg/injection, schedule: Q01DX009 (ip), vehicle: other).
In the case of `C=C1CCCC2CCC[N+](C)(CC(=O)OCC)C12` (stereo unspecified), the T/C under setting [5] is 93 % of control.
As for `C=CCn1c(COc2c(I)cc(I)c3cccnc23)n[nH]c1=S`, the T/C was 100 % of control and 96 % of control (dose: 6.25 mg/kg/injection, schedule: Q01DX005 (ip), vehicle: Klucel (hydroxypropylcellulose) (HPC)); 108 % of control and 115 % of control (dose: 12.5 mg/kg/injection, schedule: Q01DX005 (ip), vehicle: Klucel (hydroxypropylcellulose) (HPC)); 106 % of control (dose: 25.0 mg/kg/injection, schedule: Q01DX005 (ip), vehicle: Klucel (hydroxypropylcellulose) (HPC)); 114 % of control (dose: 50.0 mg/kg/injection, schedule: Q01DX005 (ip), vehicle: Klucel (hydroxypropylcellulose) (HPC)).
In the case of `C#CC(=O)OCC#CCOC(=O)C#C`, the T/C (dose: 0.75 mg/kg/injection, schedule: Q01DX009 (ip), vehicle: saline with Tween-80) is 104 % of control; the T/C (dose: 1.5 mg/kg/injection, schedule: Q01DX009 (ip), vehicle: saline with Tween-80) is 104 % of control; the T/C (dose: 3.0 mg/kg/injection, schedule: Q01DX009 (ip), vehicle: saline with Tween-80) was 112 % of control; the T/C (dose: 6.0 mg/kg/injection, schedule: Q01DX009 (ip), vehicle: saline with Tween-80) is 96 % of control.
Regarding `O=C(Nc1ncc([N+](=O)[O-])s1)c1ccc([N+](=O)[O-])cc1`, the T/C (dose: 12.5 mg/kg/injection, schedule: Q01DX009 (ip), vehicle: saline) is 100 % of control; the T/C (dose: 25.0 mg/kg/injection, schedule: Q01DX009 (ip), vehicle: saline) is 97 % of control; the T/C (dose: 50.0 mg/kg/injection, schedule: Q01DX009 (ip), vehicle: saline) was 104 % of control.
Consider `O=C1c2ccccc2CCCC12OC2c1cccnc1` (stereo unspecified), for which the T/C runs as follows: (dose: 25.0 mg/kg/injection, schedule: Q01DX009 (ip), vehicle: Klucel (hydroxypropylcellulose) (HPC)) 100 % of control; (dose: 50.0 mg/kg/injection, schedule: Q01DX009 (ip), vehicle: Klucel (hydroxypropylcellulose) (HPC)) 100 % of control; (dose: 100.0 mg/kg/injection, schedule: Q01DX009 (ip), vehicle: Klucel (hydroxypropylcellulose) (HPC)) 104 % of control.
As for `O=C(O)CNCc1ccc(F)cc1`, the T/C (dose: 100.0 mg/kg/injection, schedule: Q04DX003 (ip), vehicle: saline) was 98 % of control; the T/C (dose: 200.0 mg/kg/injection, schedule: Q04DX003 (ip), vehicle: saline) was 103 % of control; the T/C (dose: 400.0 mg/kg/injection, schedule: Q04DX003 (ip), vehicle: saline) was 102 % of control; the T/C (dose: 600.0 mg/kg/injection, schedule: Q04DX003 (ip), vehicle: saline) was 100 % of control.
As for `CSC(=S)N/N=C(\C)c1cccc(C)n1`, the T/C (dose: 7.5 mg/kg/injection, schedule: Q01DX005 (ip), vehicle: saline with Tween-80) is 100 % of control; the T/C (dose: 15.0 mg/kg/injection, schedule: Q01DX005 (ip), vehicle: saline with Tween-80) is 102 % of control; the T/C (dose: 30.0 mg/kg/injection, schedule: Q01DX005 (ip), vehicle: saline with Tween-80) is 105 % of control; the T/C (dose: 60.0 mg/kg/injection, schedule: Q01DX005 (ip), vehicle: saline with Tween-80) was 100 % of control; the T/C (dose: 120.0 mg/kg/injection, schedule: Q01DX005 (ip), vehicle: saline with Tween-80) was 87 % of control; the T/C (dose: 240.0 mg/kg/injection, schedule: Q01DX005 (ip), vehicle: saline with Tween-80) is 113 % of control.
On to `O=C(O)/C=C(\F)C(=O)O`, for which the T/C was 97 % of control and 94 % of control (dose: 12.5 mg/kg/injection, schedule: Q01DX005 (ip), vehicle: saline); 100 % of control and 96 % of control (dose: 25.0 mg/kg/injection, schedule: Q01DX005 (ip), vehicle: saline); 100 % of control and 107 % of control under setting [5]; 92 % of control and 97 % of control (dose: 100.0 mg/kg/injection, schedule: Q01DX005 (ip), vehicle: saline); 97 % of control (dose: 200.0 mg/kg/injection, schedule: Q01DX005 (ip), vehicle: saline).
As for `Cc1ccn2ccnc2c1`, the T/C (dose: 50.0 mg/kg/injection, schedule: Q01DX009 (ip), vehicle: acetone) is 102 % of control and the T/C (dose: 100.0 mg/kg/injection, schedule: Q01DX009 (ip), vehicle: acetone) was 113 % of control.
Regarding `CN(C)CCc1ccc2ccc3cccc4ccc1c2c34`, the T/C by setting is: under setting [2], 107 % of control; under setting [3], 102 % of control; under setting [4], 108 % of control.
As for `O=C(Nc1cc(Cl)ccc1C(=O)O)c1cccc(C[n+]2ccccc2)c1`, the T/C reads like this: (dose: 12.5 mg/kg/injection, schedule: Q01DX005 (ip), vehicle: saline with Tween-80) 91 % of control; (dose: 25.0 mg/kg/injection, schedule: Q01DX005 (ip), vehicle: saline with Tween-80) 102 % of control; (dose: 50.0 mg/kg/injection, schedule: Q01DX005 (ip), vehicle: saline with Tween-80) 102 % of control.
On to `CC1(CNC(=O)C(=O)NCC2(C)CO2)CO1` (stereo unspecified), for which the T/C is, setting by setting: (dose: 6.25 mg/kg/injection, schedule: Q04DX003 (ip), vehicle: saline with Tween-80) 90 % of control; (dose: 17.5 mg/kg/injection, schedule: Q04DX003 (ip), vehicle: saline with Tween-80) 109 % of control; under setting [1], 150 % of control; (dose: 25.0 mg/kg/injection, schedule: Q04DX003 (ip), vehicle: saline with Tween-80) 122 % of control; under setting [2], 172 % of control; under setting [3], 186 % of control. Further, the T/C by setting is: (dose: 100.0 mg/kg/injection, schedule: Q04DX003 (ip), vehicle: saline with Tween-80) 168 % of control; (dose: 132.0 mg/kg/injection, schedule: Q04DX003 (ip), vehicle: saline with Tween-80) 172 % of control; (dose: 200.0 mg/kg/injection, schedule: Q04DX003 (ip), vehicle: saline with Tween-80) 163 % of control and 195 % of control; (dose: 300.0 mg/kg/injection, schedule: Q04DX003 (ip), vehicle: saline with Tween-80) 195 % of control; (dose: 400.0 mg/kg/injection, schedule: Q04DX003 (ip), vehicle: saline with Tween-80) 109 % of control.
